Data from patent publication EP4703354A1, “COMPOUND AS CCR6 ANTAGONIST, AND PHARMACEUTICAL COMPOSITION AND USE THEREOF” (Wuhan Createrna Science and Technology Co.,Ltd., priority 2023, dated 2024).

Legend:
human CCR6 = biological target: T1, human CCR6 (Homo sapiens, UniProt P51684); assay: human CCR6 calcium flux activity (FLIPR, HEK293 cells stably expressing human CCR6, CCL20 stimulation); format: cell-based; conditions: for IC50: HEK293 cells stably expressing human CCR6, EC80 human MIP-3 alpha/CCL20, read-out: CCR6 inhibitory activity, IC50; for CCR6 selectivity: ratio of CXCR2 IC50 to CCR6 IC50
T1 construct: expressed in transfected cells; host or cells: HEK293
T1 sequence (P51684 1-374): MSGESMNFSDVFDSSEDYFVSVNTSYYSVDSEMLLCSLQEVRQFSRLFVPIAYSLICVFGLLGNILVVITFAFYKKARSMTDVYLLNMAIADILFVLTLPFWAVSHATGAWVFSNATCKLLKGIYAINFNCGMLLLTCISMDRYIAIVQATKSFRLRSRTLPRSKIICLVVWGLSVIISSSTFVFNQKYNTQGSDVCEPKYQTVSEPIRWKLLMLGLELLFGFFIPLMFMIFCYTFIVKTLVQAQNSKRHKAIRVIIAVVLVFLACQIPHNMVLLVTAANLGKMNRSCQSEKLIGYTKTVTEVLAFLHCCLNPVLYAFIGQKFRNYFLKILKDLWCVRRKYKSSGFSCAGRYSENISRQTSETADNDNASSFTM
In short: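 Read-out is the RFUMax−RFUMin calcium signal (494/516 nm, 90 s) after EC80 CCL20 addition, fitted four-parameter for IC50. Before agonist, Fluo-4 Direct-loaded cells sat with compound 50 min at 37 °C plus 10 min at room temperature.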

[1] = in vitro liver microsome metabolic stability, human; format: in vitro ADME; conditions: Human liver microsomes, 37°C
In short: (§1)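 Test compound at 1 µM final (100 µM working solution diluted 1:100) incubated at 37°C with liver microsomes in pH 7.4 phosphate buffer with NADP/G6P/G6PDH/MgCl2 regenerating system; sampled 0–30 min, LC-MS/MS vs internal standard. T1/2 = 0.693/k from remaining-fraction decay.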

[2] = in vitro liver microsome metabolic stability, rat; format: in vitro ADME; conditions: Rat liver microsomes, 37°C
In short: as §1

[3] = in vitro liver microsome metabolic stability, mouse; format: in vitro ADME; conditions: Mouse liver microsomes, 37°C
Procedure: Preparation of working solutions for test compounds and standards: An appropriate amount of the compound was accurately weighed and dissolved in a corresponding volume of suitable solvent to prepare 1 mM stock solutions of the test compounds and standards. The stock solutions were then diluted with appropriate solvent to obtain 100 µM working solutions of the test compounds, ensuring that the DMSO content in the working solutions remained below 10%.
The internal standard compound testosterone (or tolbutamide) and its corresponding solvent, internal standard concentration (200 ng/mL), were selected based on the properties of the test compound.
• Solution A: 0.1 mol/L K2HPO4 (2.28 g K2HPO4·3H2O was dissolved in 100 mL of double-distilled water); • Solution B: 0.1 mol/L KH2PO4 (1.36 g KH2PO4 was dissolved in 100 mL of double-distilled water); • 80.2 mL of Solution A and 19.8 mL of Solution B were mixed thoroughly, and the pH was adjusted to 7.4.
37.5 mg of glycine was weighed, dissolved in 100 mL of ultrapure water, and adjusted to pH 8.0 with NaOH.
1.25 mg of glucose-6-phosphate dehydrogenase (400 U/mg) was weighed (the specific amount weighed was calculated based on the activity of the purchased glucose-6-phosphate dehydrogenase), dissolved in 1 mL of glycine buffer to a concentration of 500 U/mL, aliquoted into 20 µL per tube, and stored at -20°C for future use.
7.83 mg of NADP, 0.06 mL of D-glucose-6-phosphate (260 mg/mL), and 10.17 mg of MgCl2·6H2O were precisely weighed.
The mixture was dissolved in 1 mL of pure water. The cofactor ratio composition: NADP 10 mM, D-glucose-6-phosphate 60 mM, MgCl2·6H2O 50 mM.
The reaction system (taking a 500 µL system as an example) was composed of the following solution ratios: 416.5 µL phosphate buffer, 5 µL compound working solution, 25 µL liver microsomes, 3.5 µL glucose-6-phosphate dehydrogenase, and 50 µL cofactor solution. The total incubation volume could be adjusted according to experimental requirements.
416.5 µL of phosphate buffer was taken, 25 µL of liver microsomes, 3.5 µL of glucose-6-phosphate dehydrogenase, and 50 µL of cofactor solution were added, vortexed twice to mix, and preincubated in a 37°C water bath for 5 minutes. Then, 5 µL of the test compound working solution was added, vortexed twice to mix, each time for 2-3 seconds, and placed in a 37°C water bath to initiate the reaction, with two parallel samples set. At 0.5 min, 1 min, 2 min, 5 min, 15 min, and 30 min after the reaction, 50 µL of the mixture was taken and added to centrifuge tubes containing 200 µL of 0°C pre-cooled internal standard working solution to terminate the reaction, vortexed for 1 minute to mix, and centrifuged at 13,000 rpm for 10 minutes in a 4°C pre-cooled high-speed centrifuge. The supernatant was collected for analysis. After the compound was added and vortex-mixed, 50 µL of the mixture was rapidly transferred to a centrifuge tube containing 200 µL of a pre-cooled (0°C) internal standard working solution to terminate the reaction, vortex-mixed for 1 minute, and used as the relative zero-point sample (relative to the standard group). The sample was then placed into a 37°C water bath to initiate the reaction, and timing was started.
The sample analysis of the test compound was performed using the liquid chromatography-tandem mass spectrometry (LCMS/MS) method. The semi-quantitative determination was performed using the ratio of the analyte peak area to the internal standard peak area. The retention times of the analyte and internal standard, chromatogram acquisition, and chromatogram integration were processed using Analyst software.
The in vitro elimination rate constant k of the test compound and the control compound was determined by converting the ratio of the peak area of the test compound to the internal standard into the remaining rate, and T1/2 was then calculated according to the following formula. T1/2 = (Ln2)/(k) = (0.693)/(k) [formula] Table 3. […]

[4] = in vitro liver microsome metabolic stability, beagle dog; format: in vitro ADME; conditions: Beagle dog liver microsomes, 37°C
In short: as §1

| SMILES | IC50 (human CCR6) [µM] | CCR6 selectivity (human CCR6) | Liver microsome T1-2 (min) Human [1] [min] | Liver microsome T1-2 (min) Rat [2] [min] | Liver microsome T1-2 (min) Mouse [3] [min] | Liver microsome T1-2 (min) Beagle dog [4] [min] |
| --- | --- | --- | --- | --- | --- | --- |
| CN(C)C(=O)c1nccc(Nc2c(N[C@@H](C#CC3CCC3)[C@]3(C)CC(F)(F)CO3)c(=O)c2=O)c1O (single isomer, unassigned) [110A] | 0.0093 | 32.0 | 641.85 | 292.82 | 1597.63 | 358.15 |
| CN(C)C(=O)c1nccc(Nc2c(N[C@@H](c3nc(Cl)ccc3F)[C@@]3(C)CC(F)(F)CO3)c(=O)c2=O)c1O [068B, 4-((2-(((S)-(6-chloro-3-fluoropyridin-2-yl)((R)-4,4-difluoro-2-methyltetrahydrofuran-2-yl)methyl)amino)-3,4-dioxocyclobut-1-en-1-yl)amino)-3-hydroxy-N,N-dimethylpicolinamide] | 0.0053 | 1440.2 | 995.19 | 570.62 | 65.23 | 199.34 |
| Cc1cc(F)cnc1[C@H](Nc1c(Nc2ccnc(C(=O)N(C)C)c2O)c(=O)c1=O)[C@]1(C)CC(F)(F)CO1 [093A, 4-((2-(((S)-((S)-4,4-difluoro-2-methyltetrahydrofuran-2-yl)(5-fluoro-3-methylpyridin-2-yl)methyl)amino)-3,4-dioxocyclobut-1-en-1-yl)amino)-3-hydroxy-N,N-dimethylpicolinamide] | 0.0171 | > 5848.0 | 359.51 | 110.15 |  | 104.27 |
| CN(C)C(=O)c1nccc(Nc2c(N[C@@H](c3cccc(Cl)n3)C3(C)CCCC3)c(=O)c2=O)c1O [compound 003, (R)-4-((2-(((6-chloropyridin-2-yl)(1-methylcyclopentyl)methyl)amino)-3,4-dioxocyclobut-1-en-1-yl)amino)-3-hydroxy-N,N-dimethylpicolinamide] | 0.0221 | 100.0 | 511.95 | 93.67 |  |  |
| CN(C)C(=O)c1nccc(Nc2c(N[C@@H](c3ccc(F)cn3)C3(C)CCCC3)c(=O)c2=O)c1O [compound 005, (R)-4-((2-(((5-fluoropyridin-2-yl)(1-methylcyclopentyl)methyl)amino)-3,4-dioxocyclobut-1-en-1-yl)amino)-3-hydroxy-N,N-dimethylpicolinamide] | 0.0109 | 115.0 | 431.17 | 101.29 | 1188.6 | 254.48 |
| CN(C)C(=O)c1nccc(Nc2c(N[C@@H](c3ncc(F)cc3F)C3(C)CCCC3)c(=O)c2=O)c1O [compound 009, (R)-4-((2-(((3,5-difluoropyridin-2-yl)(1-methylcyclopentyl)methyl)amino)-3,4-dioxocyclobut-1-en-1-yl)amino)-3-hydroxy-N,N-dimethylpicolinamide] | 0.008 | 303.4 | 225.37 | 62.30 | 178.84 | 89.42 |
| Cc1cccnc1[C@H](Nc1c(Nc2ccc(Cl)c(C(=O)N(C)C)c2O)c(=O)c1=O)C1(C)CCCC1 [compound 063, (R)-6-chloro-2-hydroxy-N,N-dimethyl-3-((2-(((1-methylcyclopentyl)(3-methylpyridin-2-yl)methyl)amino)-3,4-dioxocyclobut-1-en-1-yl)amino)benzamide] | 0.0117 | 1310.8 | 296.47 | 20.71 | ≥120 | 202.25 |
| CN(C)C(=O)c1nccc(Nc2c(N[C@@H](c3cccc(CF)n3)C3(C)CCCC3)c(=O)c2=O)c1O [compound 108, (R)-4-((2-(((6-(fluoromethyl)pyridin-2-yl)(1-methylcyclopentyl)methyl)amino)-3,4-dioxocyclobut-1-en-1-yl)amino)-3-hydroxy-N,N-dimethylpicolinamide] | 0.0039 | 189.6 | 458.54 | 124.28 |  | 63.57 |
| CC#C[C@H](Nc1c(Nc2ccnc(C(=O)N(C)C)c2O)c(=O)c1=O)C1(C)CCCC1 [compound 113, (R)-3-hydroxy-N, N-dimethyl-4-((2-((1-(1-methylcyclopentyl)but-2-yn-1-yl)amino)-3,4-dioxocyclobut-1-en-1-yl)amino)picolinamide] | 0.0498 | 29.7 | 577.09 | 124.51 |  | 520.59 |
| CC#C[C@H](Nc1c(Nc2ccc(Cl)c(C(=O)N(C)C)c2O)c(=O)c1=O)C1(C)CCCC1 [compound 114, (R)-6-chloro-2-hydroxy-N, N-dimethyl-3-((2-((1-(1-methylcyclopentyl)but-2-yn-1-yl)amino)-3,4-dioxocyclobut-1-en-1-yl)amino)benzamide] | 0.0553 | 26.2 | 392.83 | 120.25 | 361.28 | 489.6 |
| CN(C)C(=O)c1nccc(Nc2c(N[C@@H](C#CC3CC3)C3(C)CCCC3)c(=O)c2=O)c1O [compound 115, (R)-4-((2-((3-cyclopropyl-1-(1-methylcyclopentyl)prop-2-yn-1-yl)amino)-3,4-dioxocyclobut-1-en-1-yl)amino)-3-hydroxy-N,N-dimethylpicolinamide] | 0.0476 | 11.1 | 247.27 | 114.18 | 1889.54 | 1110.44 |
